Entries after “also recorded” stand apart in the source; their conditions may differ.
How the values were obtained:
[1] = brufen side effects, source not stated; cited from earlier work
[2] = acute toxicity in mice (oral, intraperitoneal); conditions: for LD50: mouse, in vivo
[3] = acetic acid "writhing" in mice; type: in vivo; conditions: acetylsalicylic acid = 1
[4] = Aerosol-induced edema of paw in mice (acute test); type: in vivo; conditions: acetylsalicylic acid = 1
Excerpt: Aerosol-induced edema of
paw in mice (acute test)

[5] = tail burning test in mice; type: in vivo; conditions: for reduction of the reaction to a thermal irritant: mice
Procedure: (§1) For example, the preparation introduced orally to mice in 10 and 20 mg/kg doses reduced the reaction of the mice to a thermal irritant by 47-75% an hour after administration. Acetylsalicylic acid in 40-300 mg/kg doses causes an effect equal to 37-87%.

[6] = painful irritation of rat's paw with electric current; type: in vivo, rats; conditions: acetylsalicylic acid = 1
[7] = yeast fever in rats; type: in vivo
[8] = acute toxicity to anti-edematous action ratio (LD50/ED50) in mice; type: in vivo; conditions: oral administration, acetylsalicylic acid = 1
[9] = Aerosol-induced edema of paw in rats (subacute test), exudative process; type: in vivo
Excerpt: Aerosol-induced edeima of
ry paw in rats (subacute test)

[10] = embryotoxic effects in rats; type: in vivo
Excerpt: The preparation was examined for possible embryotoxic effects in rats.

[11] = phenamine hyperthermia in mice; type: in vivo
Excerpt: | Phenamine hyperthermia in

[12] = tolerance on oral administration for 2 to 4 months; type: in vivo; conditions: rats, rabbits and dogs, doses equal to 5% of LD50, 30 and 70 times the human dose
Excerpt: These doses, which are conventionally therapeutic, and equal to 5% of the LD50 for these animals, exceeded 30 and 70 times the dose recommended for humans.

[13] = parameters: species or system human patients; conditions: human, in vivo
Procedure: (§2) The course of treatment lasted 3 to 4 weeks. In individual cases, the preparation was given once daily for 1 to 5 days as a symptomatic remedy (analgesic and antipyretic).
(§3) The effectiveness of the preparation was assessed by changes in complaints, clinical observation results (temperature, sensation of pain, local manifestations of the inflammatory process) and laboratory examination data (changes patients' peripheral blood picture, albumin fractions, glycoproteins and sialic acids content in blood serum, examination of stools for occult blood before and after treatment, etc.).
Clinicians hold the option that tolerance to the preparation is good.

[14] = comparison of analgesic ED50 values in three models (tail burning, writhing, electric current); type: in vivo; conditions: acetic acid writhing (mice), electric current (rats)
Procedure: as §1

[15] = parameters: species or system rabbits; conditions: rabbit, in vivo
[16] = parameters: species or system human patients; conditions: human, in vivo; remark: listed apart in the source
Excerpt: On the basis of these experimental data, the preparation was used clinically for the treatment of patients with chronic polyarthritis accompanied by gastrointestinal pathology, namely duodenal ulcer in the stage of remission. […] In view of the above, and also in view of the new preparation's general good tolerance, it may be used in patients with accompanying diseases of the organs of the alimentary system, which are contraindications to the use of most of the antiinflammatory remedies.

[17] = antibacterial action; conditions: in contrast to brufen
[18] = in vivo
[19] = acute toxicity in cats; type: in vivo
[20] = carrageenin-induced inflammatory edema, comparison with literature data; type: in vivo
[21] = in vivo; remark: listed apart in the source
[22] = comparison of activity with acetylsalicylic acid, all experimental studies; type: in vivo; conditions: Table 2
[23] = tested on: erythrocyte aggregation reaction; assay: membrane-stabilizing effect: erythrocyte aggregation reaction caused by a gelatine solution, in vitro and in vivo; type: cell-based
[24] = influence on organ functions and internal organs of animals; type: in vivo
[25] = clinical trials, therapeutic effect; type: in vivo, human patients
Excerpt: as §2
The main group of the patients given a course of treatment (203 persons), had the following diseases: rheumatism (active phase, 1st-2nd degree, according to A. I. Nesterov's classification) affecting the joints and heart (primary and recurrent rheumocarditis, heart disease of rheumatic etiology with symptoms of cardiac decompensation, of the 1-2A degree)--76 patients; polyarthritis (rheumatoid, exacerbation of chronic infectious, acute infectious-allergic, metabolic)--89 patients; arthrosis, spondylosis, exacerbation of chronic interstitial pneumonia--9 patients.
as §3

[26] = carrageenin and aerosol-induced inflammatory edema, acute tests in mice; type: in vivo; conditions: single oral doses of 5 to 20 mg/kg
[27] = tested on: cells of the amnionic membrane; type: cell-based, human
[28] = tests in adrenalectomized animals; type: in vivo
[29] = implanted sterile paper balls, granuloma weight in rats; type: in vivo; conditions: 10 and 20 mg/kg
Procedure: It was established in tests with rats with implanted sterile paper rolled into balls that 10 and 20 mg/kg doses of the preparation reduce the weight of the granulomas by 41-60% and, consequently, produce an inhibiting effect on proliferation processes during inflammation.

[30] = rheumatic heart and joint disease

Question: With `CC(C)Cc1ccc(C(C)C(=O)O)cc1` (centres unmarked) [Brufen] as the compound, how does the “abdominal pain and headaches” value [1] read?
Answer: Its value is 11%.

Question: And the allergic symptoms [1]?
Answer: Its allergic symptoms is 6-8%.

Question: And the “dyspepsia, gastrointestinal hemorrhages, bronchospasm, thrombocytopenia, mental disorders, exacerbation of cholecystitis” value [1]?
Answer: The value was 11-15%.

Question: Which enteral coefficient ([2]; mice) does the source give for `CC(=O)Oc1ccccc1C(=O)O` [acetylsalicylic acid, reference compound] here?
Answer: Its enteral coefficient is -1.8.

Question: What about the LD50 ([2]; ip) of the same compound?
Answer: The LD50 was 1100 mg/kg.

Question: And the LD50 ([2]; po)?
Answer: Its LD50 is 1910 mg/kg.

Question: What about the “Relative activity, analgesic, acetic acid "writhing" in mice” value [3] of the same compound?
Answer: Its value is 1.

Question: What about the “Relative activity, antiinflammatory, aerosol-induced edema of paw in mice (acute test)” value [4] of the same compound?
Answer: Its value is 1.

Question: What about the “Relative activity, analgesic, burning tail of mice” value ([5]; acetylsalicylic acid = 1) of the same compound?
Answer: Its value is 1.

Question: And the “reduction of the reaction to a thermal irritant” value ([5]; 40-300 mg/kg)?
Answer: Its value is 37-87%.

Question: And the “Relative activity, analgesic, painful irritation of rat's paw with electric current” value [6]?
Answer: Its value is 1.

Question: And the “Relative activity, antipyretic, yeast fever in rats” value ([7]; acetylsalicylic acid = 1)?
Answer: Its value is 1.

Question: And the “Relative therapeutic index, acute toxicity to anti-edematous action ratio (LD50/ED50)” value [8]?
Answer: The value was 1.

Question: And the “Relative activity, antiinflammatory, aerosol-induced edema of paw in rats (subacute test)” value ([9]; acetylsalicylic acid = 1)?
Answer: Its value is 1.

Question: And the “dose producing a similar effect, relative to the proposed preparation” value ([9]; rats, same test conditions, subacute)?
Answer: Its value is 30 times.

Question: What about the embryotoxic effect ([10]; parallel comparative tests) of the same compound?
Answer: The embryotoxic effect was “produces an embryotoxic effect”.

Question: What about the “Relative activity, antipyretic, phenamine hyperthermia in mice” value ([11]; acetylsalicylic acid = 1) of the same compound?
Answer: The value was 1.

Question: Which “tolerance on long oral administration” value [12] does the source give for `OC(Nc1nccs1)C(Cl)(Cl)Cl` (centres unmarked) [proposed preparation, 2,2,2-trichloro-1-(2-thiazolylamino)-ethanol] here?
Answer: Its value is “well tolerated”.

Question: And the contraindications [13]?
Answer: The contraindications was “No contraindications”.

Question: And the “influence on peripheral blood composition” value [13]?
Answer: The value was “no influence on the peripheral blood composition”.

Question: What about the leukocyte count [13] of the same compound?
Answer: The leukocyte count was “diminished to norm in leukocytosis and increased in leukopenia”.

Question: And the tolerance [13]?
Answer: The tolerance was “good”.

Question: And the analgesic effect [14]?
Answer: The analgesic effect was “analgesic effect was proved by three methods”.

Question: And the irritation of tissues [15]?
Answer: The irritation of tissues was “does not cause irritation”.

Question: And the “absorption from the gastrointestinal tract compared with acetylsalicylic acid” value ([2]; from enteral coefficient)?
Answer: Its value is “better absorption of the preparation from the gastrointestinal tract”.

Question: And the LD50 ([2]; ip)?
Answer: The LD50 was 708 mg/kg.

Question: What about the LD50 ([2]; po) of the same compound?
Answer: The LD50 was 1050 mg/kg.

Question: What about the “exacerbation of the ulcerous disease” value [16] of the same compound?
Answer: Its value is “did not cause an exacerbation of the ulcerous disease”.

Question: What about the “fecal reaction to occult blood” value [16] of the same compound?
Answer: Its value is “negative in all the patients”.

Question: What about the antibacterial action [17] of the same compound?
Answer: Its antibacterial action is “moderately pronounced antibacterial action”.

Question: What about the “discomfort in the epigastral region” value [18] of the same compound?
Answer: The value was 1.6 % of cases.

Question: And the drug dermatitis [18]?
Answer: Its drug dermatitis is 2.4%.

Question: And the “reversibility of side effects” value [18]?
Answer: Its value is “pass quickly once the preparation is discontinued”.

Question: And the picture of intoxication ([19]; acute toxicity, doses in excess of 1 g/kg)?
Answer: The picture of intoxication was “pronounced inhibition in the animals into a state similar to the prenarcotic state”.

Question: What about the “dose causing symptoms of intoxication and death” value ([19]; cats) of the same compound?
Answer: The value was greater than 1000 mg/kg.

Question: What about the “antiinflammatory activity compared with sodium salicylate, phenylbutazone, mephenamic acid (Ponstan) and brufen” value [20] of the same compound?
Answer: The value was “higher than that of sodium salicylate, phenylbutazone, mephenamic acid (Ponstan) and brufen”.

Question: What about the “harmful effect on the gastrointestinal mucosa” value [21] of the same compound?
Answer: The value was “no harmful effect on the gastrointestinal mucosa”.

Question: And the “reduction of the reaction to a thermal irritant” value ([5]; oral, 10 and 20 mg/kg, an hour after administration)?
Answer: The value was 47-75%.

Question: What about the “activity compared with acetylsalicylic acid” value [22] of the same compound?
Answer: The value was “higher activity than acetylsalicylic acid; also recorded: superior to acetylsalicylic acid in all the main effects”.

Question: What about the “membrane-stabilizing effect (erythrocyte aggregation reaction)” value [23] of the same compound?
Answer: The value was “mitigation of the erythrocyte aggregation reaction”.

Question: What about the “functions of the respiratory and cardiovascular systems” value [24] of the same compound?
Answer: The value was “does not affect”.

Question: And the “antipyretic effect compared with acetylsalicylic acid” value ([7]; rats with yeast fever, 100 mg/kg)?
Answer: The value was “corresponds to that produced by a 300 mg/kg dose of acetylsalicylic acid”.

Question: And the “reduction of intensity of the exudative process” value ([9]; rats, 10 mg/kg, within 3 hours after administration)?
Answer: The value was “reducing its intensity by half”.

Question: What about the “effect on development of the rat embryos” value ([10]; 55 mg/kg, 12 days from the 9th day of pregnancy) of the same compound?
Answer: The value was “does not affect the development of the rat embryos”.

Question: And the “patients with pronounced therapeutic effect, arthritis” value ([25]; arthritis of different etiology, 89 patients)?
Answer: Its value is 68%.

Question: What about the “patients with similar therapeutic effect” value ([25]; arthrosis, spondylosis and exacerbation of chronic interstitial pneumonia) of the same compound?
Answer: Its value is 65%.

Question: What about the “number of patients with pronounced therapeutic effect, arthritis” value ([25]; out of 89) of the same compound?
Answer: The value was 61.

Question: And the “number of patients with pronounced therapeutic effect, rheumatic” value ([25]; out of the 76 patients)?
Answer: Its value is 61 patients.

Question: And the “drop in temperature, time” value ([25]; patients)?
Answer: The value was “towards the end of the first week of therapy”.

Question: And the temperature after course ([25]; patients, 3 to 4 week course)?
Answer: Its temperature after course is “completely normalized”.

Question: And the “general status, physical activity, symptoms of local inflammation” value ([25]; patients, 4th to 9th day from beginning of treatment)?
Answer: Its value is “improvement of the patient's general status, increasing physical activity, abatement of symptoms of local inflammation”.

Question: And the ECG indices [25, 30]?
Answer: Its ECG indices is “ECG indices improved: extrasystole disappeared, symptoms of myocardial anoxia diminished”.

Question: What about the “pain in the region of the heart” value [25, 30] of the same compound?
Answer: The value was “abated”.

Question: And the “paraclinical data: albumin content and gamma-fraction of the blood” value [25, 30]?
Answer: The value was “a marked tendency towards a higher albumin content and the normalization of the gamma-fraction of the blood”.

Question: And the “paraclinical data: leukocytes, ESR” value [25, 30]?
Answer: Its value is “disappearance of leukocytes drop of the ESR to normal”.

Question: And the neurological status ([25]; rheumatic patients)?
Answer: Its neurological status is “improvement of their neurological status was observed, manifested by diminishing asthenia and irritability”.

Question: And the “patients with pronounced therapeutic effect, rheumatic” value ([25]; rheumatic patients, 76 patients)?
Answer: The value was 80%.

Question: What about the “reduction of the symptoms of exudation” value [26] of the same compound?
Answer: Its value is 17-62%.

Question: And the “toxic effect on cells of the amnionic membrane” value [27]?
Answer: The value was “nor does it have any toxic effect”.

Question: What about the “contribution of the adrenal system to antiinflammatory effect” value [28] of the same compound?
Answer: Its value is “andrenal system contributes to the proposed preparation's antiinflammatory effect”.

Question: And the phenamine hyperthermia ([11]; mice, same dose (100 mg/kg) followed by phenamine)?
Answer: The phenamine hyperthermia was “do not manifest the usual hyperthermia”.

Question: What about the “reduction of the weight of the granulomas” value [29] of the same compound?
Answer: Its value is 41-60%.
